Laboratory results taken from patent US4920119A, “Triazine derivatives” (Hoffmann-La Roche Inc., priority 1986, dated 1990).

These compounds were tested against T1, Xanthine oxidase (Rattus norvegicus, UniProt P22985) (assay: xanthine oxidase inhibiting activity (xanthine oxidase-catalyzed oxidation of xanthine to uric acid)). Conditions: xanthine oxidase from rat liver; 10^-5 molar xanthine, 0.1M tris hydrochloride pH 8.1, 30° C., uric acid formation at 293 nm.
T1 construct: Xanthine oxidase was obtained from rat liver; from tissue; host or cells: rat liver
T1 sequence (P22985 whole entry): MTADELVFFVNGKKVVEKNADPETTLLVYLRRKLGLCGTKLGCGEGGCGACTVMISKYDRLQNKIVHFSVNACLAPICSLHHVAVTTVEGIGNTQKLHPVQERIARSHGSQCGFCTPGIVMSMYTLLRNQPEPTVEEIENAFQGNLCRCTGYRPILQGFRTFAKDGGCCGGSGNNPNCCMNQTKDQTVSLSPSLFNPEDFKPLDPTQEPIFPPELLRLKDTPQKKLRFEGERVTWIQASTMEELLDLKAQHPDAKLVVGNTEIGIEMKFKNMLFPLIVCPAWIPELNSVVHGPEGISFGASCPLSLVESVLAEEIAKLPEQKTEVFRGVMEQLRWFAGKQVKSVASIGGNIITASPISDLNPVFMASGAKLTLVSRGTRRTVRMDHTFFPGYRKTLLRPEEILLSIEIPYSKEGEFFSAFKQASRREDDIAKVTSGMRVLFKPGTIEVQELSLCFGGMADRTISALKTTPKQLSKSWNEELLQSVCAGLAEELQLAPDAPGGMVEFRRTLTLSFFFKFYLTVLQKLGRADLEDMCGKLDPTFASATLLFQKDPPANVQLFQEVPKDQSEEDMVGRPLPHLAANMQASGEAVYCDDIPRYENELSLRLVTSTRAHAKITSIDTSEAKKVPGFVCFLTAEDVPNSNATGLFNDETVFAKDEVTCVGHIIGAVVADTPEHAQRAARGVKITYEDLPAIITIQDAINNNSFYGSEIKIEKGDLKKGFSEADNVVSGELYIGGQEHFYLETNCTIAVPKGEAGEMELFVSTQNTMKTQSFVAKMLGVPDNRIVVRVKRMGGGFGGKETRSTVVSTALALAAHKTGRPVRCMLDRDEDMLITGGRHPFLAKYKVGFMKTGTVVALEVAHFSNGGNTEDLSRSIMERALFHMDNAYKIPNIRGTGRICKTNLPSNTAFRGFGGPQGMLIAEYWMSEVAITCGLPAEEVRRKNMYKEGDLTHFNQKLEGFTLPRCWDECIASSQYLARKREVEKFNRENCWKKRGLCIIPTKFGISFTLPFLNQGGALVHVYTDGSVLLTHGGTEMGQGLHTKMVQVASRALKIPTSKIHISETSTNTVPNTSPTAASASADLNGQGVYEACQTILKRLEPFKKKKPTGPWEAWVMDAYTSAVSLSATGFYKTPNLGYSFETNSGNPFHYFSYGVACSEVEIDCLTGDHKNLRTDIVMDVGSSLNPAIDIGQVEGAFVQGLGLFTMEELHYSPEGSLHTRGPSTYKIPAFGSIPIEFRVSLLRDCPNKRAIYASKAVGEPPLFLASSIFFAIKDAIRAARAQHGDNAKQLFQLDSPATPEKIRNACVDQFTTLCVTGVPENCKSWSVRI
Type: biochemical
Experimental: Xanthine oxidase was obtained from rat liver according to the method described by E. Della Corte and F. Stirpe in Biochem.J. 117, 97 (1970) and was aged for at least 24 hours prior to use. Solutions of 3 ml of 0.1M aqueous tris hydrochloride buffer (pH 8.1) containing 10^-5 molar xanthine were treated with 200 μl of xanthine oxidase dissolved in 0.1M aqueous tris hydrochloride buffer (pH 8.1) and incubated at 30° C. in the presence and absence of a test substance, whereupon the formation of uric acid from xanthine was monitored by measuring the light absorption at 293 nm. The IC50 , namely that concentration of a test substance required to inhibit by 50% the xanthine oxidase-catalyzed oxidation of xanthine to uric acid, was then determined.
`O=c1[nH]nnc2c1cnn2-c1cccc(C(F)(F)F)c1` [7-(3-Trifluoromethylphenyl)-7H-pyrazolo[3,4-d]-1,2,3-triazin-4(3H)-one] gave an IC50 of 35 nM.
Work on `COc1ccc(-n2ncc3c(=O)[nH]nnc32)cc1Cl` [7-(3-chloro-4-methoxyphenyl)-7H-pyrazolo[3,4-d]-1,2,3-triazin-4(3H)-one] yielded an IC50 of 6 nM.
Work on `COc1ccc(-c2nsc3c(=O)[nH]nnc23)cc1Cl` [7-(3-chloro-4-methoxyphenyl)isothiazolo[4,5-d]-1,2,3-triazin-4(3H)-one] yielded an IC50 of 4 nM.
`COc1ccc(-c2nsc3c(=O)[nH]nnc23)cc1F` [7-(3-fluoro-4-methoxyphenyl)isothiazolo[4,5-d]-1,2,3-triazin-4(3H)-one] was tested, and the IC50 was 8 nM.
With `COc1ccc(-c2nsc3c(=O)[nH]nnc23)cc1C(F)(F)F` [7-(3-trifluoromethyl-4-methoxyphenyl)isothiazolo[4,5-d]-1,2,3-triazin-4(3H)-one] the IC50 was 4 nM.
Compound `CC(=O)Nc1ccc(-c2nsc3c(=O)[nH]nnc23)cc1` [7-(4-acetamidophenyl)isothiazolo[4,5-d]-1,2,3-triazin-4(3H)-one] has an IC50 of 7 nM.
Work on `CSc1ccc(-n2ncc3c(=O)[nH]nnc32)cc1` [7-(4-methylthiophenyl)-7H-pyrazolo[3,4-d]-1,2,3-triazin-4(3H)-one] yielded an IC50 of 18 nM.
`O=c1[nH]nnc2c(-c3cccc(C(F)(F)F)c3)nccc12` [8-(3-trifluoromethylphenyl)pyrido[3,4-d]-1,2,3-triazin-4(3H)-one] showed an IC50 of 48 nM.
